The NIST ThermoML archive (doi:10.1016/j.tca.2016.08.006)
Where “and” joins values, the source holds several entries; their conditions need not be identical. Identical values can stand only once.

How the values were obtained:
[1] = 101.33 kPa, Crystal, Vacuum adiabatic calorimetry
[2] = molar heat capacity at constant pressure; conditions: 101.33 kPa, Crystal, Vacuum adiabatic calorimetry

[S-2].[Zn+2] [zinc sulfide]
Conditions | molar entropy, [1] [J/K/mol] | molar heat capacity at constant pressure, [2]
1 K | 3.1e-05 | 0.000119 J/K/mol
2 K | 0.00031 | 0.000958 J/K/mol
4 K | 0.002561 | 0.007765 J/K/mol
6 K | 0.00879 | 0.02685 J/K/mol
8 K | 0.0213 | 0.06618 J/K/mol
10 K | 0.043 | 0.1376 J/K/mol
12 K | 0.078 | 0.2601 J/K/mol
13.23 K | – | 0.1984 J/K/mol
14 K | 0.1317 | 0.4569 J/K/mol
16 K | 0.2106 | 0.7475 J/K/mol
16.01 K | – | 0.5445 J/K/mol
17.97 K | – | 1.025 J/K/mol
18 K | 0.3203 | 1.14 J/K/mol
19.61 K | – | 1.553 J/K/mol
20 K | 0.4649 | 1.628 J/K/mol
21.54 K | – | 2.093 J/K/mol
23.46 K | – | 2.68 J/K/mol
25 K | 0.987 | 3.17 J/K/mol
25.99 K | – | 3.508 J/K/mol
28.89 K | – | 4.52 J/K/mol
30 K | 1.72 | 4.941 J/K/mol
31.66 K | – | 5.487 J/K/mol
34.78 K | – | 6.6 J/K/mol
35 K | 2.617 | 6.734 J/K/mol
37.93 K | – | 7.702 J/K/mol
40 K | 3.629 | 8.454 J/K/mol
41.05 K | – | 8.761 J/K/mol
44.22 K | – | 9.788 J/K/mol
45 K | 4.72 | 10.08 J/K/mol
47.06 K | – | 10.71 J/K/mol
50 K | 5.863 | 11.63 J/K/mol
51.43 K | – | 12.16 J/K/mol
53.49 K | – | 12.83 J/K/mol
55 K | 7.041 | 13.11 J/K/mol
55.51 K | – | 13.31 J/K/mol
57.5 K | – | 14 J/K/mol
59.41 K | – | 14.51 J/K/mol
60 K | 8.244 | 14.56 J/K/mol
61.72 K | – | 15.17 J/K/mol
64.45 K | – | 15.93 J/K/mol
65 K | 9.466 | 15.99 J/K/mol
67.18 K | – | 16.76 J/K/mol
69.7 K | – | 17.39 J/K/mol
70 K | 10.7 | 17.39 J/K/mol
72.52 K | – | 18.2 J/K/mol
75 K | 11.95 | 18.77 J/K/mol
75.26 K | – | 18.97 J/K/mol
77.99 K | – | 19.74 J/K/mol
80 K | 13.2 | 20.13 J/K/mol
80.73 K | – | 20.47 J/K/mol
83.59 K | – | 21.24 J/K/mol
85 K | 14.47 | 21.46 J/K/mol
86.48 K | – | 22.17 J/K/mol
90 K | 15.73 | 22.77 J/K/mol
91.62 K | – | 23.27 J/K/mol
95 K | 16.99 | 24.03 J/K/mol
95.13 K | – | 24.19 J/K/mol
98.85 K | – | 25.12 J/K/mol
100 K | 18.26 | 25.25 J/K/mol
102.42 K | – | 26.14 J/K/mol
106.06 K | – | 26.79 J/K/mol
109.93 K | – | 27.68 J/K/mol
110 K | 20.77 | 27.55 J/K/mol
113.87 K | – | 28.52 J/K/mol
117.79 K | – | 29.35 J/K/mol
120 K | 23.26 | 29.66 J/K/mol
121.86 K | – | 30.17 J/K/mol
125.61 K | – | 30.87 J/K/mol
129.43 K | – | 31.59 J/K/mol
130 K | 25.71 | 31.58 J/K/mol
133.29 K | – | 32.28 J/K/mol
137.15 K | – | 32.9 J/K/mol
140 K | 28.12 | 33.3 J/K/mol
141.04 K | – | 33.52 J/K/mol
144.93 K | – | 34.17 J/K/mol
149.88 K | – | 35.06 J/K/mol
150 K | 30.47 | 34.85 J/K/mol
155.67 K | – | 35.74 J/K/mol
159.17 K | – | 36.12 J/K/mol
160 K | 32.76 | 36.24 J/K/mol
164 K | – | 36.77 J/K/mol
168.93 K | – | 37.35 J/K/mol
170 K | 35 | 37.49 J/K/mol
173.91 K | – | 37.96 J/K/mol
178.77 K | – | 38.48 J/K/mol
180 K | 37.17 | 38.6 J/K/mol
184.05 K | – | 38.9 J/K/mol
189.4 K | – | 39.43 J/K/mol
190 K | 39.29 | 39.6 J/K/mol
194.4 K | – | 39.95 J/K/mol
199.39 K | – | 40.39 J/K/mol
200 K | 41.34 | 40.5 J/K/mol
204.53 K | – | 40.77 J/K/mol
209.77 K | – | 41.2 J/K/mol
210 K | 43.34 | 41.32 J/K/mol
214.65 K | – | 41.55 J/K/mol
219.66 K | – | 41.93 J/K/mol
220 K | 45.28 | 42.05 J/K/mol
224.69 K | – | 42.27 J/K/mol
230 K | 47.16 | 42.62 J/K/mol and 42.72 J/K/mol
235.27 K | – | 42.91 J/K/mol
240 K | 48.99 | 43.32 J/K/mol
240.27 K | – | 43.24 J/K/mol
245.33 K | – | 43.69 J/K/mol
250 K | 50.77 | 43.88 J/K/mol
250.45 K | – | 43.78 J/K/mol
258.21 K | – | 44.25 J/K/mol
260 K | 52.5 | 44.38 J/K/mol
263.65 K | – | 44.4 J/K/mol
269.02 K | – | 44.71 J/K/mol
270 K | 54.19 | 44.84 J/K/mol
274.56 K | – | 44.99 J/K/mol
280 K | 55.83 | 45.27 J/K/mol
280.13 K | – | 45.24 J/K/mol
285.72 K | – | 45.48 J/K/mol
290 K | 57.42 | 45.66 J/K/mol
291.19 K | – | 45.73 J/K/mol
297.09 K | – | 45.7 J/K/mol
300 K | 58.98 | 46.03 J/K/mol
304.72 K | – | 46.14 J/K/mol
310 K | 60.49 | 46.36 J/K/mol
312.85 K | – | 46.5 J/K/mol
320 K | 61.97 | 46.68 J/K/mol
